Assay results published in patent publication US6291247A, “Methods of screening for factors that disrupt neurotrophin conformation and reduce neurotrophin biological activity” (priority 1996, dated 2001).
Bridges are numbered along the chain shown (N, C = ends). Where no end group is shown, it is not given here.

Key:
p75 = assay: Affinity cross-linking of 125I-NGF to p75 on PC12 cells; format: binding, rat; conditions: for Inhibition of p75 Interaction: 200 μM peptide, 0.1 nM 125I-NGF, PC12 cells
Procedure: The ability of the peptides under study to interfere with binding of NGF to NGF receptors was evaluated by analysis of inhibition of the chemical cross-linking of ^251 I-NGF to the common neurotrophin receptor p75 (Chao, J. Neurobiol. 25:1373-1385 (1994)) and the specific NGF receptor TrkA (Barbacid, J. Neurobiol. 25: 1386-1403 (1994)). Immunoprecipitation and polyacrylamide gel electrphoresis of cross linked receptors allowed identification of both receptors, as shown in FIG. 7A. […] At concentrations of 200 μM, neither R11(l) nor R11(m) were able to inhibit greater than 50% of the observed ^125 I-labelling.
The ability of the peptides derived from the 68-58/108-110 region of NGF to antagonize NGF interaction with the p75 and TrkA receptors was determined The peptides tested were bicyclic (BC) 68-58/108-110, cyclic (C) 68-58/108-110, and linear (L) 68-58/108-110, each of which are illustrated in FIGS. 2 and 5D
Receptor cross-linking studies were performed on PC12 rat pheochromocytoma cells (ATCC CRL 1721; Greene et al., Proc. Natl. Acad. Sci. USA 73: 2424-2432 (1976)) which were maintained in RPMI1640 (Gibco) supplemented with 10% fetal calf serum (Gibco). Cells were harvested by incubation and trituration in Ca^2+ and Mg^2+ free Gey's balanced salt solution, washed and suspended in 10 mM HEPES buffer (pH 7.35) containing 125 mM NaCl, 4.8 mM KCl, 1.3 mM CaCl2, […], 1.2 mM KH2 PO4, 1 g/L sucrose and 1 g/L bovine serum albumin (HEPES Krebs Ringer buffer, HKR buffer) at 10^6 cells/mL. Subsequent procedures were carried out at 4° C. unless otherwise noted.
For receptor crosslinking, ^125 I-NGF was prepared by the method of Sutter et al. (J. Biol. Chem. 254: 5972-5982 (1979)) from NGF isolated from mouse submaxillary gland (as described in Mobley et al., Biochemistry 15:1543 (1976)) obtained from Cedarlane.
[…] Control PC12 cells were incubated in HKR buffer in the presence of ^125 I-NGF only (no NGF peptide).
Receptor proteins were cross-linked with either 0.4 mM bis(sulfosuccinimidyl)suberate (BS^3, Pierce) for TrkA, or a combination of 2 mM […] (EDC) and 2 mM N-hydroxysulfosuccinimide (S-NHS) for p75^NTR as indicated. All cross-linking agents (from Pierce) were dissolved in water and added in 20 μL aliquots and the reaction allowed to proceed for 30 min at 25° C. On completion of the cross-linking reaction, the cells were washed three times in HKR buffer with BSA at 4° C. to remove excess free radiolabelled ligand and reagents. The cells were solubilized in 100 μL SDS sample buffer Samples were separated on a modified Laemmli discontinues acrylamide gel system (Laemmli, Nature 227:680 (1970)) using 4% SDS-PAGE stacking gel and a gradient urea polyacrylamide separating gel ranging from 4.5% acrylamide/18% urea to 7.5% acrylamide/48% urea. The gels were fixed and processed for autoradiography using -70° C. exposure with Kodak XAR film and manual processing (FIG. 7B).
For positive receptor identification, immunoprecipitation studies were performed. Samples of 10^7 cells in 1 mL HKR buffer were cross-linked under the conditions described above, washed in HKR buffer and solubilized in non-denaturing lysis buffer (1% NP40, 10% glycerol, 1 mM phenylmethylsulfonylfluoride, 10 μg/mL leupeptin and 0.5 mM o-vanadate in Tris-buffered saline) (Kaplan et al., Nature 350:1 158-160 (1991)). The solutions were clarified by centrifugation and immunoprecipitated with either mAb 192 (monoclonal antibody for p75; Cedarlane) or rabbit anti-TrkA, which had been raised against a COOH-terminal peptide of TrkA. The ^125 I-NGF cross-linked receptor-antibody complexes were isolated using 50 μL of a 50% solution of rabbit anti-mouse agarose (Sigma; for mAb 192) or protein A-Sepharose (Pharmcia; for anti-Trk) equilibrated in lysis buffer. Immunoprecipitates were washed three times in lysis buffer and the pellets denatured in SDS reducing sample buffer. […]

PC12 cells [1] = assay: Toxicity to PC12 cells; format: cell-based, rat; conditions: 100 μM
Procedure: Effects of divalent ions on NGF mediated survival and toxicity was evaluated using a colorimetric assay for the lysosomal enzyme acid phosphatase to determine cell number (Connolly, D. T., Knight, M. B., Harakas, N. K, Wittwer, A. J. & Feder, J. Determination of the number of endothelial cells in culture using an acid phosphatase assay. Anal. Biochem. 152, 136-140 (1986); Ueda, Y., Walsh, E., Nakanishi H. & Yoshida, K. A. colorometric assay method for the evaluation of neurotrophic activity in vitro. Neurosci. Lett. 165, 203-207 (1994)). […] To evaluate toxicity, the cells were seeded and maintained without NGF in RPMI with 10% heat inactivated donor horse serum and 5% fetal calf serum in the presence of additives. Loss in viable cell number was determined and expressed as a percent of control. NGF rescues PC12 cells from cell death in serum-free medium(Greene, L. A. Nerve growth factor prevents the death and stimulates neuronal differentiation of clonal PC12 pheochromocytoma cells in serum-free medium. J. Cell Biol. 78, 747-755 (1978)). NGF-dependent survival was assessed by harvesting PC12 cells in balanced salt solution followed with washing by 4 cycles of suspension and centrifugation in serum-free RPMI prior to seeding in 96 well plates. After incubation with additives, medium was removed from the wells and cells washed once with 200 μl PBS. Buffer containing 0.1M sodium acetate pH 5.5, 0.1% Triton X-100 and 10 mM p-nitrophenyl phosphate (Sigma 104 phosphatase substrate) was added to each well (100 μl). Plates were incubated at 37° C. for 3 hours. The reaction was stopped by the addition of 10 μl/well of 1N sodium hydroxide and the color development measured at 405 nm using a microplate reader. The relationship between cell number and enzyme activity was linear over the range 1000 to 15,000 cells.
To explore the ability of other transition metals to influence the biological activities of NGF, a series of cations known to mimic in certain respects the binding of zinc to proteins were tested. […] For this reason these ions were not tested in NGF- dependant growth phenomena. […] As these studies appeared to indicate potentially complex results upon metal ions binding to NGF, a receptor crosslinking system where specific receptor types could be identified was utilized.

PC12 cells [2] = assay: Toxicity to PC12 cells; format: cell-based, rat
[3] = test system: dorsal root ganglion (DRG) neurons; assay: NGF-dependent neurite growth of ED8 chick DRG neurons (FIG. 6, Terasaki plates); format: cell-based
Procedure: FIG. 6 is a graph showing the ability of R11 to inhibit the activity of NGF in vitro using a biological assay system. […] Dissociated cells enriched for sensory neurons were prepared from embryonic day 8 (ED8) chick dorsal root ganglion (DRG) as described (Sutter et al., J. Biol. Chem. 254: 5972-5982 (1979)). Neurons were seed into wells of Terasaki plates treated sequentially with poly-D-lysine and laminin at a density of 800-1000 cells/well in "synthetic" Dulbecco's modified Eagle medium (Bottenstein et al., Proc. Natl. Acad. Sci. USA 76: 514-517 (1979)) containing 1% fetal calf serum and NGF at […]. The cells were incubated with the additives indicated at 37° C. in a 5% CO2 atmosphere At 18-20 hours, the cells were fixed in 4% formaldehyde in phosphate-buffered saline and scored for neurite growth. The cells on the entire lower horizontal surface of the well were counted using an inverted microscope fitted with phase contrast optics. A neurite was scored if its caliber from origin to terminal was constant and its length was equal to or greater than 1.5 cell body diameters. Neurite growth was corrected for background (no NGF) growth in the presence and absence of peptide.
Such a profile is not typical of a competitive inhibitor. That is, a different dose response profile would be expected if R11 were simply competing with NGF for binding to a receptor. Neither of the less constrained synthetic Intermediates of R11, i.e., R11 (linear) or R11 (monocyclic), was as effective in blocking NGF-dependent neurite growth concentrations up to 200 μM.

NGF = biological target: T1, NGF (Mus musculus, UniProt P01139); assay: Cross-linking of NGF protomers in a cell-free system (Example 6); format: biochemical; conditions: R11 analogues, concentration not given
T1 construct: homodimer
T1 sequence (P01139 122-239): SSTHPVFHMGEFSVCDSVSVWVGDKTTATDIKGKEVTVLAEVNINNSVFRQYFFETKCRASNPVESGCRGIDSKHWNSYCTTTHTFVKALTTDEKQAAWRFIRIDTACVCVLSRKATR

In the case of “NH2 -Cys-Gly-Ser-Glu-Val-Pro-Asn-Ser-Ala-Arg-Cys-Cys-Val-Cys-OH (H-CGSEVPNSARCCVC-OH; not fully specified; printed as NH2 -Cys-Gly-Ser-Glu-Val-Pro-Asn-Ser-Ala-Arg-Cys-Cys-Val-Cys-OH; cysteine pairing not given here) [R11(m), monocyclic R11 with a single disulfide bond]”, the “Inhibition of p75 Interaction” value (p75; listed as C) is reported as “no inhibition”.

For `[Cd+2]` [Cd^2+], the “Toxicity (PC12 cell viability)” value (PC12 cells [1]) was 63 ± 10 % control and the “Toxicity to PC12 cells in serum-free conditions” value (PC12 cells [2]) was “toxic to PC12 cells”.

In the case of `[Co+2]` [Co^2+], the “Toxicity (PC12 cell viability)” value (PC12 cells [1]) is reported as 52 ± 14 % control and the “Toxicity to PC12 cells in serum-free conditions” value (PC12 cells [2]) is reported as “toxic to PC12 cells”.

For “NH2 -Cys-Gly-Ser-Glu-Val-Pro-Asn-Ser-Ala-Arg-Cys-Cys-Val-Cys-OH (H-CGSEVPNSARCCVC-OH; not fully specified; printed as NH2 -Cys-Gly-Ser-Glu-Val-Pro-Asn-Ser-Ala-Arg-Cys-Cys-Val-Cys-OH; cysteine pairing not given here) [R11(l), linear peptide R11]”, the “Inhibition of the observed 125I-labelling (p75)” value (p75; 200 μM) was at most 50%, the “Inhibition of p75 Interaction” value (p75; listed as L) was “no inhibition” and the “Blocking of NGF-dependent neurite growth” value ([3]; concentrations up to 200 μM) was “Neither of the less constrained intermediates R11(l) or R11 (m) were effective”.

With “BR11: same amino acid composition as R11, except that the CVC domain has been moved to appear at the N-terminus (CVCCRASNPVESGC; disulfide 1-14, 3-4)” the “Inhibition of NGF-mediated neurite growth” value ([3]; concentrations of 500 μk (so in the source)) was “did not inhibit NGF-mediated neurite growth” and the “Cross-linking of NGF promoters (NGF dimer disruption assay)” value (NGF) was “not effective in influencing the crosslinking of NGF promoters”.

With “SR11: identical amino acid composition to R11 except that the eleven N-terminal residues have been inverted to the naturally occurring NGF sequence 58-68 (CRASNPVESGCCVC; disulfide 1-14, 11-12)” the “Cross-linking of NGF promoters (NGF dimer disruption assay)” value (NGF) was “equally etude in reducing crosslinking of NGF promoters as R11”.

In the case of `[Hg+2]` [Hg^2+], the “Toxicity (PC12 cell viability)” value (PC12 cells [1]) is reported as 3 ± 0.8 % control and the “Toxicity to PC12 cells in serum-free conditions” value (PC12 cells [2]) is reported as “toxic to PC12 cells”.
